pEC50, pIC50: −log10 of the molar value. Like-named read-outs stand apart in the source and are kept apart here.
Legend:
recombinant human HPK1 = recombinant human HPK1 (Homo sapiens (Human), UniProt Q92918); test: HPK1 kinase assay (ADP-Glo); format: biochemical; conditions: 25 μM ATP, MBP substrate
Summary of the method: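 Activity was read as ADP formed, detected by ADP-Glo luminescence after the reaction of 5 ng recombinant human HPK1 with MBP and ATP (stocks 0.5 μg/μl and 25 μM) for 40 min at 30 °C. Buffer was Tris pH 7.5 with MgCl2, BSA and DTT, with compound in 0.5% DMSO. IC50 came from inhibition curves.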

[1] = system: human peripheral blood pan T cells; test: IFNγ and IL-2 analysis of human peripheral pan T cells; format: cell-based; conditions: T-cell, CD3/CD28 bead stimulation, 100 nM Prostaglandin E2, 24 hr
Summary of the method: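 Human peripheral blood pan T cells (8×10^4) were preincubated 1 h with compounds plus 100 nM PGE2. They were then activated with anti-CD3/CD28 Dynabeads at a 1:3 cell:bead ratio. IFNγ and IL-2 were measured on a Meso Scale Discovery platform.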

[2] = IFNγ secretion, read-out: IFNγ (EC50)
[3] = IL-2 secretion, read-out: IL-2 (EC50)

Sequence of recombinant human HPK1 (Q92918 whole entry): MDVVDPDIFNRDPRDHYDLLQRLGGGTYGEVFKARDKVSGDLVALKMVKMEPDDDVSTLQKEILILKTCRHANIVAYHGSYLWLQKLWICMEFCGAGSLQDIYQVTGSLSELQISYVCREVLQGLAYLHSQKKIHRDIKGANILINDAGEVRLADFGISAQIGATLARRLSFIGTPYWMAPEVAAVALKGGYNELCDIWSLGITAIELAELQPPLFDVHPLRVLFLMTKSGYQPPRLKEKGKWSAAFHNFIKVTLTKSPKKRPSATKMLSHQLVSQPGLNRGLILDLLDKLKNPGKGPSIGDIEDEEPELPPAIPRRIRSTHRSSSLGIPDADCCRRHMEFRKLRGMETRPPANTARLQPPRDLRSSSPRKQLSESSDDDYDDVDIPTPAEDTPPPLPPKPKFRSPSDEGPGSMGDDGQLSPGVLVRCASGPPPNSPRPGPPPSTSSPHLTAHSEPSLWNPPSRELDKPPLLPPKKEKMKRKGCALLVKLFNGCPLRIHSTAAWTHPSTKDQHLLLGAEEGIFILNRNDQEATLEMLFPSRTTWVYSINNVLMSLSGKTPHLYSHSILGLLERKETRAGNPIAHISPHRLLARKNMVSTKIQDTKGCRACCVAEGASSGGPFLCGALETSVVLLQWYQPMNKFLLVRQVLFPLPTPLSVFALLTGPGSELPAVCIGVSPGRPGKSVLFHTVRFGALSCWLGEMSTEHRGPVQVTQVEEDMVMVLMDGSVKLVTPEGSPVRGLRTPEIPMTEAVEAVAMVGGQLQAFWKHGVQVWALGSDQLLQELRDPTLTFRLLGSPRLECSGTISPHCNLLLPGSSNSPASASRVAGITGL

Compound `CCc1c(F)c(N(C)CC)c2[nH]ncc2c1-c1ccn2nc(NC(=O)[C@@H]3C[C@@H]3F)cc2c1` [Example 525, (1S,2S)-N-(5-(5-ethyl-7-(ethyl(methyl)amino)-6-fluoro-1H-indazol-4-yl)pyrazolo[1,5-a]pyridin-2-yl)-2-fluorocyclopropane-1-carboxamide] has a pIC50 (recombinant human HPK1) greater than 7.00, a pEC50 [1, 2] greater than 6.70 and a pEC50 [1, 3] of 6.00 to 6.70.

In the case of `CSc1c(F)c(SC)c2[nH]ncc2c1-c1ccn2nc(NC(=O)[C@@H]3C[C@@H]3F)cc2c1` [Example 529, (1S,2S)-2-fluoro-N-(5-(6-fluoro-5,7-bis(methylthio)-1H-indazol-4-yl)pyrazolo[1,5-a]pyridin-2-yl)cyclopropane-1-carboxamide], the pIC50 (recombinant human HPK1) was greater than 7.00, the pEC50 [1, 2] was greater than 6.70 and the pEC50 [1, 3] was greater than 6.70.

`CSc1c(F)cc2[nH]ncc2c1-c1ccn2nc(NC(=O)[C@@H]3C[C@@H]3F)cc2c1` [Example 530, (1S,2S)-2-fluoro-N-(5-(6-fluoro-5-(methylthio)-1H-indazol-4-yl)pyrazolo[1,5-a]pyridin-2-yl)cyclopropane-1-carboxamide] gave a pIC50 (recombinant human HPK1) greater than 7.00, a pEC50 [1, 2] of 6.00 to 6.70 and a pEC50 [1, 3] of 6.00 to 6.70.

`CCOc1c(F)c(CC)c(-c2ccn3nc(NC(=O)[C@@H]4C[C@@H]4F)cc3c2)c2cn[nH]c12` [Example 531, (1S,2S)-N-(5-(7-ethoxy-5-ethyl-6-fluoro-1H-indazol-4-yl)pyrazolo[1,5-a]pyridin-2-yl)-2-fluorocyclopropane-1-carboxamide] gave a pIC50 (recombinant human HPK1) greater than 7.00, a pEC50 [1, 2] greater than 6.70 and a pEC50 [1, 3] of 6.00 to 6.70.

`CCc1c(F)c(F)c2[nH]ncc2c1-c1ccn2nc(NC(=O)[C@@H]3C[C@@H]3F)cc2c1` [Example 532, (1S,2S)-N-(5-(5-ethyl-6,7-difluoro-1H-indazol-4-yl)pyrazolo[1,5-a]pyridin-2-yl)-2-fluorocyclopropane-1-carboxamide] showed a pIC50 (recombinant human HPK1) greater than 7.00 and a pEC50 [1, 2] of 6.00 to 6.70.

Work on `Cc1c(F)c(OCCO)c2[nH]ncc2c1-c1ccn2nc(NC(=O)[C@@H]3C[C@@H]3F)cc2c1` [Example 534, (1S,2S)-2-fluoro-N-(5-(6-fluoro-7-(2-hydroxyethoxy)-5-methyl-1H-indazol-4-yl)pyrazolo[1,5-a]pyridin-2-yl)cyclopropane-1-carboxamide] yielded a pIC50 (recombinant human HPK1) greater than 7.00 and a pEC50 [1, 2] greater than 6.70.

For `CSc1c(F)c(F)c2[nH]ncc2c1-c1ccn2nc(NC(=O)[C@@H]3C[C@@H]3F)cc2c1` [Example 541, (1S,2S)-N-(5-(6,7-difluoro-5-(methylthio)-1H-indazol-4-yl)pyrazolo[1,5-a]pyridin-2-yl)-2-fluorocyclopropane-1-carboxamide], the pIC50 (recombinant human HPK1) was greater than 7.00 and the pEC50 [1, 2] was 6.00 to 6.70.

`CCOc1c(F)c(SC)c(-c2ccn3nc(NC(=O)[C@@H]4C[C@@H]4F)cc3c2)c2cn[nH]c12` [Example 543, (1S,2S)-N-(5-(7-ethoxy-6-fluoro-5-(methylthio)-1H-indazol-4-yl)pyrazolo[1,5-a]pyridin-2-yl)-2-fluorocyclopropane-1-carboxamide] was tested, and the pIC50 (recombinant human HPK1) was greater than 7.00, the pEC50 [1, 2] was greater than 6.70 and the pEC50 [1, 3] was 6.00 to 6.70.

`CC(=O)N(C)c1c(F)c(Cl)c(-c2ccn3nc(NC(=O)[C@@H]4C[C@@H]4F)cc3c2)c2cn[nH]c12` [Example 552, (1S,2S)-N-(5-(5-chloro-6-fluoro-7-(N-methylacetamido)-1H-indazol-4-yl)pyrazolo[1,5-a]pyridin-2-yl)-2-fluorocyclopropane-1-carboxamide] was tested, and the pIC50 (recombinant human HPK1) was greater than 7.00, the pEC50 [1, 2] was 6.00 to 6.70 and the pEC50 [1, 3] was 6.00 to 6.70.

`CN(C)C(=O)c1c(F)c(Cl)c(-c2ccn3nc(NC(=O)[C@@H]4C[C@@H]4F)cc3c2)c2cn[nH]c12` [Example 556, 5-chloro-6-fluoro-4-(2-((1S,2S)-2-fluorocyclopropane-1-carboxamido)pyrazolo[1,5-a]pyridin-5-yl)-N,N-dimethyl-1H-indazole-7-carboxamide] showed a pIC50 (recombinant human HPK1) greater than 7.00, a pEC50 [1, 2] greater than 6.70 and a pEC50 [1, 3] of 6.00 to 6.70.

`Cc1c(F)c(N(C)CCO)c2[nH]ncc2c1-c1ccn2nc(NC(=O)[C@@H]3C[C@@H]3F)cc2c1` [Example 557, (1S,2S)-2-fluoro-N-(5-(6-fluoro-7-((2-hydroxyethyl)(methyl)amino)-5-methyl-1H-indazol-4-yl)pyrazolo[1,5-a]pyridin-2-yl)cyclopropane-1-carboxamide] was tested, and the pIC50 (recombinant human HPK1) was greater than 7.00, the pEC50 [1, 2] was greater than 6.70 and the pEC50 [1, 3] was 6.00 to 6.70.

`CSc1c(F)c(N(C)C)c2[nH]ncc2c1-c1ccn2nc(NC(=O)[C@@H]3C[C@@H]3F)cc2c1` [Example 558, (1S,2S)-N-(5-(7-(dimethylamino)-6-fluoro-5-(methylthio)-1H-indazol-4-yl)pyrazolo[1,5-a]pyridin-2-yl)-2-fluorocyclopropane-1-carboxamide] gave a pIC50 (recombinant human HPK1) greater than 7.00, a pEC50 [1, 2] greater than 6.70 and a pEC50 [1, 3] of 6.00 to 6.70.

Work on `CN(c1c(F)c(Cl)c(-c2ccn3nc(NC(=O)[C@@H]4C[C@@H]4F)cc3c2)c2cn[nH]c12)C1CC(O)C1` (stereo partly drawn) [Example 561, (1S,2S)-N-(5-(5-chloro-6-fluoro-7-((3-hydroxycyclobutyl)(methyl)amino)-1H-indazol-4-yl)pyrazolo[1,5-a]pyridin-2-yl)-2-fluorocyclopropane-1-carboxamide] yielded a pIC50 (recombinant human HPK1) greater than 7.00, a pEC50 [1, 2] of 6.00 to 6.70 and a pEC50 [1, 3] of 6.00 to 6.70.

In the case of `CCN(C)c1c(F)c(C)c(-c2ccn3nc(NC(=O)[C@@H]4C[C@@H]4F)cc3c2)c2cn[nH]c12` [Example 563, (1S,2S)-N-(5-(7-(ethyl(methyl)amino)-6-fluoro-5-methyl-1H-indazol-4-yl)pyrazolo[1,5-a]pyridin-2-yl)-2-fluorocyclopropane-1-carboxamide], the pIC50 (recombinant human HPK1) was greater than 7.00, the pEC50 [1, 2] was 6.00 to 6.70 and the pEC50 [1, 3] was 6.00 to 6.70.

`CCN(C)c1c(F)c(Cl)c(-c2ccn3nc(NC(=O)[C@@H]4C[C@@H]4F)cc3c2)c2cn[nH]c12` [Example 564, (1S,2S)-N-(5-(5-chloro-7-(ethyl(methyl)amino)-6-fluoro-1H-indazol-4-yl)pyrazolo[1,5-a]pyridin-2-yl)-2-fluorocyclopropane-1-carboxamide] showed a pIC50 (recombinant human HPK1) greater than 7.00, a pEC50 [1, 2] of 6.00 to 6.70 and a pEC50 [1, 3] of 6.00 to 6.70.

`CN(C)c1c(F)c(C(F)(F)F)c(-c2ccn3nc(NC(=O)[C@@H]4C[C@@H]4F)cc3c2)c2cn[nH]c12` [Example 565, (1S,2S)-N-(5-(7-(dimethylamino)-6-fluoro-5-(trifluoromethyl)-1H-indazol-4-yl)pyrazolo[1,5-a]pyridin-2-yl)-2-fluorocyclopropane-1-carboxamide] showed a pIC50 (recombinant human HPK1) greater than 7.00, a pEC50 [1, 2] of 6.00 to 6.70 and a pEC50 [1, 3] of 6.00 to 6.70.

For `CSc1c(F)cc2[nH]ncc2c1-c1ccn2nc(NC(=O)C3CC3)cc2c1` [Example 569, N-(5-(6-fluoro-5-(methylthio)-1H-indazol-4-yl)pyrazolo[1,5-a]pyridin-2-yl)cyclopropanecarboxamide], the pIC50 (recombinant human HPK1) was greater than 7.00, the pEC50 [1, 2] was 6.00 to 6.70 and the pEC50 [1, 3] was less than 6.00.

In the case of `Cc1c(F)c(C(=O)N(C)C)c2[nH]ncc2c1-c1ccn2nc(NC(=O)[C@@H]3C[C@@H]3F)cc2c1` [Example 570, 6-fluoro-4-(2-((1S,2S)-2-fluorocyclopropane-1-carboxamido)pyrazolo[1,5-a]pyridin-5-yl)-N,N,5-trimethyl-1H-indazole-7-carboxamide], the pIC50 (recombinant human HPK1) was greater than 7.00, the pEC50 [1, 2] was greater than 6.70 and the pEC50 [1, 3] was 6.00 to 6.70.

Compound `CCN(C)c1c(F)c(SC)c(-c2ccn3nc(NC(=O)[C@@H]4C[C@@H]4F)cc3c2)c2cn[nH]c12` [Example 577, (1S,2S)-N-(5-(7-(ethyl(methyl)amino)-6-fluoro-5-(methylthio)-1H-indazol-4-yl)pyrazolo[1,5-a]pyridin-2-yl)-2-fluorocyclopropane-1-carboxamide] has a pIC50 (recombinant human HPK1) greater than 7.00, a pEC50 [1, 2] greater than 6.70 and a pEC50 [1, 3] of 6.00 to 6.70.

`Cc1c(F)c(Cl)c(-c2ccn3nc(NC(=O)[C@@H]4C[C@@H]4F)cc3c2)c2cn[nH]c12` [Example 579, (1S,2S)-N-(5-(5-chloro-6-fluoro-7-methyl-1H-indazol-4-yl)pyrazolo[1,5-a]pyridin-2-yl)-2-fluorocyclopropane-1-carboxamide] showed a pIC50 (recombinant human HPK1) greater than 7.00, a pEC50 [1, 2] greater than 6.70 and a pEC50 [1, 3] of less than 6.00.

`CCc1c(F)c(SCC#N)c2[nH]ncc2c1-c1ccn2nc(NC(=O)[C@@H]3C[C@@H]3F)cc2c1` [Example 588, (1S,2S)-N-(5-(7-((cyanomethyl)thio)-5-ethyl-6-fluoro-1H-indazol-4-yl)pyrazolo[1,5-a]pyridin-2-yl)-2-fluorocyclopropane-1-carboxamide] gave a pIC50 (recombinant human HPK1) greater than 7.00, a pEC50 [1, 2] greater than 6.70 and a pEC50 [1, 3] greater than 6.70.

From patent US11649255B2, “Indazoles as hematopoietic progenitor kinase 1 (HPK1) inhibitors and methods using same” (1st Biotherapeutics, Inc., priority 2020, dated 2023)
